Measured values published in US20250186562A1, “TARGET SUBSTRATE PROTEIN DEGRADATION PLATFORM” (The Regents of the University of California, priority 2022, published 2025).
Non-standard residues stand in square brackets, D forms with d. Residues, ends and D or L forms follow the SMILES beside them. No end group written: not given here. ξ: configuration not given here. Tyr(3-NO2) = N[C@@H](Cc1ccc(O)c([N+](=O)[O-])c1)C(=O)O; dPhe(4-guanidino) = N=C(N)Nc1ccc(C[C@@H](N)C(=O)O)cc1; fluorescein = fluorescein attached to the C-terminus; Phe(4-guanidino) = N=C(N)Nc1ccc(C[C@H](N)C(=O)O)cc1; Tyr(3-F) = N[C@@H](Cc1ccc(O)c(F)c1)C(=O)O; Arg(Me2a) = CN(C)C(=N)NCCC[C@H](N)C(=O)O; Phe(4-NH2) = Nc1ccc(C[C@H](N)C(=O)O)cc1; His(τ-Me) = Cn1cnc(C[C@H](N)C(=O)O)c1; His(π-Me) = Cn1cncc1C[C@H](N)C(=O)O; 4Pal = N[C@@H](Cc1ccncc1)C(=O)O; 2Thi = N[C@@H](Cc1cccs1)C(=O)O; Ile(3ξ) = CCC(C)[C@H](N)C(=O)O

Legend:
[1] = target: GST-Ubr-box of Ubr1 (Homo sapiens (Human), UniProt Q8IWV7); assay: Competition fluorescence polarization (FP) assay, GST-Ubr-box of Ubr1; type: binding; settings: for Ki: [GST-UBR1]=2 μM, tracer 9 nM, read-out: UBR1 Affinity Ki FP
Sequence of GST-Ubr-box of Ubr1 (Q8IWV7 other isoform, or with tags, fused parts or gaps): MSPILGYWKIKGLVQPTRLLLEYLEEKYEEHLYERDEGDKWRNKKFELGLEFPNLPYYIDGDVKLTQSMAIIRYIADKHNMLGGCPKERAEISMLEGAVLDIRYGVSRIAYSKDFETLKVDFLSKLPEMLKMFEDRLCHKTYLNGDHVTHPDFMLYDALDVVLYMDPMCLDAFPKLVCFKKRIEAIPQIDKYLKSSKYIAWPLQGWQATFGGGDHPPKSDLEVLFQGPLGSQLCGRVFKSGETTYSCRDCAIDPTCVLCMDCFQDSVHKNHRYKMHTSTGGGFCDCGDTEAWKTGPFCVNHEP
From the text: (§1) Fluorescence Polarization (FP) assays were used to determine binding affinity of the peptidomimetic compounds for the Ubr box (FIGS. 4A-B). FIG. 1A depicts the mechanism of action of peptidomimetic compounds that include a linker. […] Binding affinities as determined by Structure Activity Relationship Studies (SARs) of additional peptidomimetic compounds to GST-Ubr-box of Ubr 1 and Ubr2 are shown in Table 1.
(§2) The FP assay uses a tetrapeptide with a sequence arginine-isoleucine-phenylalanine-serine (RIFS) with fluorescein attached to the C-terminus as tracer that was previously shown to bind to the Ubr-boxes of Ubr1 and Ubr2 with similar binding affinity. Assays were developed in 384-well plates, which were read on a Clariostar Reader. Signal-to-background ratio (S/B) was optimized by varying concentrations of GST-Ubr-box and tracer concentrations. GST-fusion proteins were used due to its larger size than Ubr-box alone to increase the FP effect. […] The optimized condition includes receptor concentration [GST-UBR1]=2 μM, tracer concentration [tracer]=9 nM, and the highest concentration of unlabeled peptidomimetic compound competitors at 200 μM with 3× serial dilutions.
(§3) Preliminary ITC measurements confirmed the FP measurements (FIG. 4C).

[2] = target: GST-Ubr-box of Ubr2 (Homo sapiens (Human), UniProt Q8IWV8); assay: Competition fluorescence polarization (FP) assay, GST-Ubr-box of Ubr2; type: binding; settings: read-out: UBR2 Affinity Ki FP
Sequence of GST-Ubr-box of Ubr2 (Q8IWV8 other isoform, or with tags, fused parts or gaps): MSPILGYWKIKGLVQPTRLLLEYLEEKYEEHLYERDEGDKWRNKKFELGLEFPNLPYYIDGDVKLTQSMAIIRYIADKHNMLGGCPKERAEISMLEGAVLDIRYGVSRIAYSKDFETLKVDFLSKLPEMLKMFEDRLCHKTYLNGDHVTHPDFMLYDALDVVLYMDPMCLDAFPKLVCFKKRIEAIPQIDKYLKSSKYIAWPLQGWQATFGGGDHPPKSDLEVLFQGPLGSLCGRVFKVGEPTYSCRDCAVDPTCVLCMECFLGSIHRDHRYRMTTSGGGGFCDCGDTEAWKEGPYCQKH
From the text: as §1, §2, §3

[3] = system: Ubr-mediated GFP degradation (Ubiquitin-R-GFP model Ubr substrate); assay: R-GFP degradation in cells (fluorescent imaging); type: cell-based; settings: cells expressing Ubiquitin-R-GFP
From the text: The peptidomimetic compound outcompetes the R-GFP model Ubr substrate for E3 binding, therefore preventing GFP degradation. The upper panels show fluorescent imaging of the cells and the lower panel show a bright field of the cells.

[4] = target: ERRα protein (Homo sapiens (Human), UniProt P11474); assay: ERRα protein level in Hela cells by Western blot; type: cell-based; settings: Hela cells treated overnight at 100 nM, 33.3 nM, and 11.1 nM; Western blot of whole cell lysates
Sequence of ERRα protein (P11474 whole entry): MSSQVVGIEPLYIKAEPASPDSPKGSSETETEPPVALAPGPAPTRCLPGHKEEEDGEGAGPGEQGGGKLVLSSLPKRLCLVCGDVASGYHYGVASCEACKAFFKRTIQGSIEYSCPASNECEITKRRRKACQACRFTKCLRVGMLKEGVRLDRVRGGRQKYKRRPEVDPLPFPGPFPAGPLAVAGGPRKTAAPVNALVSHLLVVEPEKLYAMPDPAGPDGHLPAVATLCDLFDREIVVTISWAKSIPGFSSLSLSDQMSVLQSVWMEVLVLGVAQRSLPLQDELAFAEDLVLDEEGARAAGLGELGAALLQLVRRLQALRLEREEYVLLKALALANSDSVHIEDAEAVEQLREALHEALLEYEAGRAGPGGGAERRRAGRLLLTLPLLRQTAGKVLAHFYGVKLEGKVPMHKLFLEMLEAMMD
Experimental: In this experiment, Hela cells were treated overnight at a concentration of 100 nM, 33.3 nM, and 11.1 nM with the above peptidomimetic compound. The ERRα protein was detected by Western blot from whole cell lysates. Glyceraldehyde 3-phosphate dehydrogenase (GAPDH) was blotted as loading control.

[5] = target: Ubr-box of Ubr1 (Homo sapiens (Human), UniProt Q8IWV7); assay: FP titration of GST-Ubr-box into tracer, Ubr1; type: binding; settings: 9 nM tracer
Sequence of Ubr-box of Ubr1 (Q8IWV7 other isoform, or with tags, fused parts or gaps): as the sequence (Q8IWV7 other isoform, or with tags, fused parts or gaps) above
From the text: as §2, §3

[6] = target: Ubr-box of Ubr2 (Homo sapiens (Human), UniProt Q8IWV8); assay: FP titration of GST-Ubr-box into tracer, Ubr2; type: binding; settings: 9 nM tracer
Sequence of Ubr-box of Ubr2 (Q8IWV8 other isoform, or with tags, fused parts or gaps): as the sequence (Q8IWV8 other isoform, or with tags, fused parts or gaps) above
From the text: as §2, §3

Molecule | Ki [1] [µM] | Ki [2] [µM] | other results
N=C(N)NCCC[C@H](N)C(=O)N[C@@H](Cc1ccc(O)c([N+](=O)[O-])c1)C(=O)N[C@@H](Cc1ccccc1)C(N)=O [Compound 1] | 1 to 10 | 1 to 10 | 
CC[C@H](C)[C@H](NC(=O)[C@@H](N)Cc1ccc(N=C(N)N)cc1)C(=O)N[C@@H](Cc1ccccc1)C(N)=O [Compound 2] (H-[Phe(4-guanidino)]-Ile-Phe-NH2) | 1 to 10 | < 1 | 
CC[C@H](C)[C@H](NC(=O)[C@@H](N)CCONC(=N)N)C(=O)N[C@@H](Cc1ccccc1)C(N)=O [Compound 3] | 10 to 100 | 10 to 100 | 
CC[C@H](C)[C@H](NC(=O)[C@@H](N)CCCNC(=N)NCC(F)(F)F)C(=O)N[C@@H](Cc1ccccc1)C(N)=O [Compound 4] | < 1 | < 1 | concentration at which R-GFP degradation in cells is blocked [3]: > 1 µM
CC[C@H](C)[C@H](NC(=O)[C@@H](N)Cc1ccc(NC(N)=O)cc1)C(=O)N[C@@H](Cc1ccccc1)C(N)=O [Compound 5] | > 100 | 10 to 100 | 
CC[C@H](C)[C@H](NC(=O)[C@@H](N)CCCN(C)C(=N)NC)C(=O)N[C@@H](Cc1ccccc1)C(N)=O [Compound 6] | > 100 | > 100 | 
CNC(=N)N(C)CCC[C@H](N)C(=O)N[C@@H](Cc1ccc(O)c(C)c1)C(=O)N[C@@H](Cc1ccccc1)C(N)=O [Compound 7] | 10 to 100 | 10 to 100 | 
CC[C@H](C)[C@H](NC(=O)[C@@H](N)Cc1nn[nH]n1)C(=O)N[C@@H](Cc1ccccc1)C(N)=O [Compound 8] | > 100 | > 100 | 
CCNC(=N)N(CC)CCC[C@H](N)C(=O)N[C@H](C(=O)N[C@@H](Cc1ccccc1)C(N)=O)[C@@H](C)CC [Compound 9] | 10 to 100 | 10 to 100 | 
CC[C@H](C)[C@H](NC(=O)[C@@H](N)Cc1cncn1C)C(=O)N[C@@H](Cc1ccccc1)C(N)=O [Compound 10] (H-[His(π-Me)]-Ile-Phe-NH2) | > 100 | > 100 | 
CNC(=N)N(C)CCC[C@H](N)C(=O)N[C@@H](Cc1ccc(O)c([N+](=O)[O-])c1)C(=O)N[C@@H](Cc1ccccc1)C(N)=O [Compound 11] | 10 to 100 | 1 to 10 | 
CNC(=N)N(C)CCC[C@H](N)C(=O)N[C@@H](Cc1ccc(O)c([N+](=O)[O-])c1)C(=O)N[C@@H](Cc1ccccc1)C(N)=O [Compound 12] | 1 to 10 | < 1 | 
CC[C@H](C)[C@H](NC(=O)[C@@H](N)Cc1cn(C)cn1)C(=O)N[C@@H](Cc1ccccc1)C(N)=O [Compound 13] (H-[His(τ-Me)]-Ile-Phe-NH2) | > 100 | > 100 | 
COc1ccc(C[C@H](NC(=O)[C@@H](N)CCCNC(=N)NCC(F)(F)F)C(=O)N[C@@H](Cc2ccccc2)C(N)=O)cc1 [Compound 14] | < 1 | < 1 | 
COc1ccc(C[C@H](NC(=O)[C@@H](N)CCCNC(=N)N(C)C)C(=O)N[C@@H](Cc2ccccc2)C(N)=O)cc1 [Compound 15] (H-[Arg(Me2a)]-Tyr(Me)-Phe-NH2) | < 1 | < 1 | 
COc1ccc(C[C@H](NC(=O)[C@H](N)Cc2ccc(N=C(N)N)cc2)C(=O)N[C@@H](Cc2ccccc2)C(N)=O)cc1 [Compound 16] (H-[dPhe(4-guanidino)]-Tyr(Me)-Phe-NH2) | < 1 | < 1 | 
NCC(=O)N[C@@H](Cc1ccc(O)c([N+](=O)[O-])c1)C(N)=O [Compound 17] (H-Gly-[Tyr(3-NO2)]-NH2) | > 100 | > 100 | 
NC(=O)[C@H](Cc1ccccc1)NC(=O)[C@@H](N)Cc1ccc(O)c([N+](=O)[O-])c1 [Compound 18] (H-[Tyr(3-NO2)]-Phe-NH2) | > 100 | > 100 | 

Molecule | Ki [1] [µM] | Ki [2] [µM] | other results
CN(C)C(=N)NCCC[C@H](N)C(=O)N[C@@H](Cc1ccc(O)c([N+](=O)[O-])c1)C(=O)N[C@@H](Cc1ccccc1)C(N)=O [Compound 19] (H-[Arg(Me2a)]-[Tyr(3-NO2)]-Phe-NH2) | < 1 | < 1 | 
N=C(NCCC[C@H](N)C(=O)N[C@@H](Cc1ccc(O)c(Cl)c1)C(=O)N[C@@H](Cc1ccccc1)C(N)=O)NCC(F)(F)F [Compound 20] | < 1 | < 1 | 
CC[C@H](C)[C@H](NC(=O)[C@@H](N)Cc1cccs1)C(=O)N[C@@H](Cc1ccccc1)C(N)=O [Compound 21] (H-[2Thi]-Ile-Phe-NH2) | > 100 | > 100 | 
CC[C@H](C)[C@H](NC(=O)[C@H](Cc1ccccc1)NC(=O)[C@@H](N)Cc1ccncc1)C(N)=O [Compound 22] (H-[4Pal]-Phe-Ile-NH2) | > 100 | > 100 | 
CC[C@H](C)[C@H](NC(=O)[C@@H](N)Cc1ccncc1)C(=O)N[C@@H](Cc1ccccc1)C(N)=O [Compound 23] (H-[4Pal]-Ile-Phe-NH2) | > 100 | > 100 | 
CCC(C)[C@H](NC(=O)[C@@H](N)Cc1ccc(NC(C)=O)cc1)C(=O)N[C@@H](Cc1ccccc1)C(N)=O (some centres unmarked) [Compound 24] (H-[Phe(4-NH2)](Ac)-[Ile(3ξ)]-Phe-NH2) | 10 to 100 | 10 to 100 | 
N=C(N)NCCC[C@H](N)C(=O)N[C@@H](Cc1ccc(O)c(Cl)c1)C(=O)N[C@@H](Cc1ccccc1)C(N)=O [Compound 25] | 1 to 10 | 10 to 100 | 
CC(C[C@H](NC(=O)[C@@H](N)CCCNC(=N)N)C(=O)N[C@@H](Cc1ccccc1)C(N)=O)C(F)(F)F (some centres unmarked) [Compound 26] | < 1 | < 1 | 
CCC(C)C(NC(=O)[C@@H](N)CCCNC(=N)N)C(=O)N[C@@H](Cc1ccccc1)C(N)=O (some centres unmarked) [Compound 27] | 1 to 10 | 1 to 10 | 
CN(C)C(=N)NCCC[C@H](N)C(=O)N[C@@H](Cc1ccc(O)c(F)c1)C(=O)N[C@@H](Cc1ccccc1)C(N)=O [Compound 28] (H-[Arg(Me2a)]-[Tyr(3-F)]-Phe-NH2) | < 1 | 1 to 10 | 
CN(C)C(=N)NCCC[C@H](N)C(=O)N[C@@H](Cc1cscn1)C(=O)N[C@@H](Cc1ccccc1)C(N)=O [Compound 29] | 1 to 10 | 1 to 10 | 
CN(C)C(=N)NCCC[C@H](N)C(=O)N[C@@H](Cc1cccs1)C(=O)N[C@@H](Cc1ccccc1)C(N)=O [Compound 30] | < 1 | 1 to 10 | 
CN(C)C(=N)NCCC[C@H](N)C(=O)N1CCC[C@H]1C(=O)N[C@@H](Cc1ccccc1)C(N)=O [Compound 31] (H-[Arg(Me2a)]-Pro-Phe-NH2) | > 100 | > 100 | 
CC[C@H](C)[C@H](NC(=O)[C@@H](N)CCC/N=C(\N)N(C)C)C(=O)N[C@@H](Cc1ccccc1)C(N)=O [Compound 32] (H-[Arg(Me2a)]-Ile-Phe-NH2) | 1 to 10 | 1 to 10 | 
N=C(NCCC[C@H](N)C(=O)N[C@@H](Cc1ccc(O)c([N+](=O)[O-])c1)C(=O)N[C@@H](Cc1ccccc1)C(N)=O)NCC(F)(F)F [Compound 33] | < 1 | < 1 | 
COc1cc(/C=C2\SC(=O)N(Cc3cn(CCCNC(=O)[C@H](Cc4ccccc4)NC(=O)[C@H](Cc4ccc(O)c([N+](=O)[O-])c4)NC(=O)[C@@H](N)CCCNC(=N)NCC(F)(F)F)nn3)C2=O)ccc1Oc1ccc(C#N)cc1C(F)(F)F [above peptidomimetic compound] |  |  | levels of the ERRα protein in cells [4]: reduction of levels of the ERRα protein
tracer: tetrapeptide arginine-isoleucine-phenylalanine-serine (RIFS) with fluorescein attached to the C-terminus as tracer (RIFS-fluorescein) |  |  | binding of tracer to Ubr-box of Ubr1 [5]: can bind; binding of tracer to Ubr-box of Ubr2 [6]: can bind
unlabeled tetrapeptide: unlabeled tetrapeptide (RIFS sequence without fluorescein tag) used as competitor [reference compound] |  |  | displacement of tracer [1]: Effective displacement of tracer
